Measured values: patent US12004506B2, “Pharmaceutical composition comprising a cyclic peptide of formula X1-[sequence]-X2 and use for extracorporeal lung treatment” (priority 2013, dated 2024)

System: non-ischemic pig donor lung
Test: Ex vivo lung perfusion (EVLP) of non-ischemic pig donor lungs, inhalative application
Conditions: inhalative application, 1 mg/kg, hourly T1 to T4, vs WFI control
Protocol: Brain death pigs were turned into dorsal position, and a longitudinal sternotomy was performed. The pericardium and both pleural cavities were opened. […] An inflow catheter was placed in the pulmonary artery through a purse-string on the right ventricular outflow tract.
The lungs (non-ischemic) were then preserved with an ante grade flush of cold isotonic preservation solution (50 ml per kg body weigh of pig, containing potassium ions, sodium ions, magnesium ions, calcium ions, chloride ions, dextran, glucose, buffering ions) through the inflow catheter. Incision of the left auricular appendix provides outflow. The lungs were ventilated during this period with 50% oxygen, and iced slush were placed in both pleural cavities and mediastinum.
The explanation technique was en bloc harvesting with heart and esophagus according to the following steps: • a) Dissection of soft tissue bridges to the thoracic cavity on both sides of the trachea. • b) Transsection of both pulmonal ligaments (very deep, difficult exposure), then of the VCI, the lower thoracic descendent aorta and the esophagus, respectively. • c) Blunt separation from remaining mediastinal adhesions. • d) Complete inflation of the donor lung prior of tracheal closure with a stapler.
After explantation, the lungs were wrapped in gauze, placed in an insulated ice bag filled with low-potassium dextran extracellular solution, and stored at 4° C. for 18 to 24 hours. A temperature probe was submerged in the container, which will be placed in a refrigerator.
For ex-vivo lung conditioning, the EVLP technique ([…]) was used. In the EVLP technique, donor lungs are placed into a circuit composed of a pump, ventilator and filters. EVLP technique, the temperature may increased up to 37 °C. In the EVLP, a ventilator is used to deliver oxygen to the lungs. The pump is used to perfuse the lungs with an extracellular solution containing human albumin and nutrition. During EVLP, the lung function can be evaluated regularly on key indicators. […]

C[C@@H]1NC(=O)CNC(=O)[C@H](CCC(=O)O)NC(=O)[C@@H]2CCCN2C(=O)[C@H]([C@@H](C)O)NC(=O)[C@H](CCC(=O)O)NC(=O)[C@H](CCCNC(=N)N)NC(=O)[C@H](CCC(N)=O)NC(=O)CNC(=O)[C@@H](N)CSSC[C@@H](C(=O)O)NC(=O)[C@H](Cc2ccc(O)cc2)NC(=O)[C@H](Cc2c[nH]c3ccccc23)NC(=O)[C@@H]2CCCN2C(=O)[C@H](CCCCN)NC(=O)[C@H](C)NC(=O)[C@H](CCC(=O)O)NC1=O [SEQ ID NO: 1]
dynamic lung compliance (FIG. 2A): improved
arterio-venous pO2 difference ΔpO2 (FIG. 2B): improved
